Experiments:
Test in all cases: relative viability (nuclei count vs DMSO), 5 days (fraction); higher = more cells survive
[1] = test system: NCI-H1650
Summary of the method: (§1)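 Nuclei were stained with Hoechst during a one-step fixation (final 0.05% Triton X-100, 1% formaldehyde, 1 ug/ml Hoechst) carried out 5 days after dosing, then counted on 4× images. The cells, lung cancer lines in 1536-well plates, had been dosed by pin tool the day after seeding with one drug alone or a fixed anchor-drug dose plus five library-drug doses (not always all listed) in √10 steps. Relative viability is the nuclei count in treated wells divided by that in vehicle wells, and each value is the median of duplicate plates.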

[2] = test system: HCC-44
Summary of the method: as §1

[3] = test system: NCI-H1975
Summary of the method: as §1

[4] = test system: NCI-H1792
Summary of the method: as §1

[5] = test system: 201T
Summary of the method: as §1

[6] = test system: NCI-H441
Summary of the method: as §1

[7] = test system: SK-MES-1
Summary of the method: as §1

[8] = test system: NCI-H23
Summary of the method: as §1

[9] = test system: BEN
Summary of the method: as §1

[10] = test system: NCI-H596
Summary of the method: as §1

[11] = test system: HARA
Summary of the method: as §1

Molecule `Cc1sc2c(c1C)C(c1ccc(Cl)cc1)=N[C@@H](CC(=O)OC(C)(C)C)c1nnc(C)n1-2` [JQ1] + O=C(c1cc(Cc2n[nH]c(=O)c3ccccc23)ccc1F)N1CCN(C(=O)C2CC2)CC1 [Olaparib] (partner 8 µM) has a relative viability ([1]; first compound 0.04 µM) of 0.725, a relative viability ([1]; first compound 0.1265 µM) of 0.669 and a relative viability ([1]; first compound 0.4 µM) of 0.476. The relative viability ([1]; first compound 1.265 µM) was 0.21, the relative viability ([1]; first compound 4 µM) was 0.149 and the relative viability ([2]; first compound 0.04 µM) was 0.978. It also gave a relative viability ([2]; first compound 0.1265 µM) of 1.03, a relative viability ([2]; first compound 0.4 µM) of 0.893 and a relative viability ([2]; first compound 1.265 µM) of 0.851. The relative viability ([2]; first compound 4 µM) was 0.442, the relative viability ([3]; first compound 0.04 µM) was 0.747 and the relative viability ([3]; first compound 0.1265 µM) was 0.608. The relative viability ([3]; first compound 0.4 µM) was 0.473, the relative viability ([3]; first compound 1.265 µM) was 0.281 and the relative viability ([3]; first compound 4 µM) was 0.342. It also gave a relative viability ([4]; first compound 0.04 µM) of 0.378, a relative viability ([4]; first compound 0.1265 µM) of 0.266 and a relative viability ([4]; first compound 0.4 µM) of 0.392. The relative viability ([4]; first compound 1.265 µM) was 0.139, the relative viability ([4]; first compound 4 µM) was 0.0406 and the relative viability ([5]; first compound 0.04 µM) was 0.871. It also gave a relative viability ([5]; first compound 0.4 µM) of 0.613, a relative viability ([5]; first compound 1.265 µM) of 0.498 and a relative viability ([5]; first compound 4 µM) of 0.347. For the same molecule, the relative viability ([6]; first compound 0.04 µM) was 0.612, the relative viability ([6]; first compound 0.1265 µM) was 0.523 and the relative viability ([6]; first compound 0.4 µM) was 0.256. The relative viability ([6]; first compound 1.265 µM) was 0.17, the relative viability ([6]; first compound 4 µM) was 0.17 and the relative viability ([7]; first compound 0.04 µM) was 0.671. The relative viability ([7]; first compound 0.1265 µM) was 0.606, the relative viability ([7]; first compound 0.4 µM) was 0.385 and the relative viability ([7]; first compound 1.265 µM) was 0.208. For the same molecule, the relative viability ([7]; first compound 4 µM) was 0.209, the relative viability ([8]; first compound 0.04 µM) was 0.329 and the relative viability ([8]; first compound 0.1265 µM) was 0.341. For the same molecule, the relative viability ([8]; first compound 0.4 µM) was 0.162, the relative viability ([8]; first compound 1.265 µM) was 0.179 and the relative viability ([8]; first compound 4 µM) was 0.127. For the same molecule, the relative viability ([9]; first compound 0.04 µM) was 1.02, the relative viability ([9]; first compound 0.1265 µM) was 0.76 and the relative viability ([9]; first compound 0.4 µM) was 0.671. For the same molecule, the relative viability ([9]; first compound 1.265 µM) was 0.346, the relative viability ([9]; first compound 4 µM) was 0.243 and the relative viability ([10]; first compound 0.04 µM) was 0.618. It also gave a relative viability ([10]; first compound 0.1265 µM) of 0.499, a relative viability ([10]; first compound 0.4 µM) of 0.367 and a relative viability ([10]; first compound 1.265 µM) of 0.326. It also gave a relative viability ([10]; first compound 4 µM) of 0.321, a relative viability ([11]; first compound 0.04 µM) of 0.739 and a relative viability ([11]; first compound 0.1265 µM) of 0.484. It also gave a relative viability ([11]; first compound 0.4 µM) of 0.321, a relative viability ([11]; first compound 1.265 µM) of 0.308 and a relative viability ([11]; first compound 4 µM) of 0.18.

From the supplement of paper PMC10307832
